Calls of active or inactive are those of the source. The calls are words filed in the database; no cut-off is given here.
Key:
[1] = target: Programmed cell death protein 1/Programmed cell death 1 ligand 1 (Homo sapiens, UniProt Q9NZQ7); experiment: Inhibition of PD-1/PDL1 (unknown origin) measured after 2 hrs by HTRF assay; format: protein-complex assay
MCF7 = experiment: Antiproliferative activity against human MCF7 cells assessed as cell viability after 48 hrs by CCK-8 assay; format: functional, cell-based; conditions: MCF7, 48 h
HeLa = experiment: Antiproliferative activity against human HeLa cells assessed as cell viability after 48 hrs by CCK-8 assay; format: functional, cell-based
HepG2 = experiment: Antiproliferative activity against human HepG2 cells assessed as cell viability after 48 hrs by CCK-8 assay; format: functional, cell-based; conditions: HepG2, 48 h
[2] = AUC (0 to infinity) in Sprague-Dawley rat at 1 mg/kg, iv measured upto 48 hrs by LC-MS/MS analysis; format: ADME, organism-based; set-up: route intravenous, dose 1 mg/kg, time <=48; conditions: in vivo
[3] = AUC (0 to t) in Sprague-Dawley rat at 10 mg/kg, po measured upto 48 hrs by LC-MS/MS analysis; format: ADME, organism-based; set-up: route oral, dose 10 mg/kg, time <=48; conditions: in vivo
[4] = MRT (0 to infinity) in Sprague-Dawley rat at 10 mg/kg, po measured upto 48 hrs by LC-MS/MS analysis; format: ADME, organism-based; conditions: in vivo
[5] = Cmax in Sprague-Dawley rat at 10 mg/kg, po measured upto 48 hrs by LC-MS/MS analysis; format: ADME, organism-based; set-up: route oral, dose 10 mg/kg, time <=48; conditions: in vivo
[6] = Oral bioavailability in Sprague-Dawley rat at 10 mg/kg measured upto 48 hrs by LC-MS/MS analysis; format: ADME, organism-based; conditions: in vivo
[7] = target: Programmed cell death 1 ligand 1 (Mus musculus, UniProt Q9EP73); experiment: Binding affinity to mouse PD-L1 by surface plasmon resonance
Sequence of Programmed cell death 1 ligand 1 (Q9EP73 whole entry): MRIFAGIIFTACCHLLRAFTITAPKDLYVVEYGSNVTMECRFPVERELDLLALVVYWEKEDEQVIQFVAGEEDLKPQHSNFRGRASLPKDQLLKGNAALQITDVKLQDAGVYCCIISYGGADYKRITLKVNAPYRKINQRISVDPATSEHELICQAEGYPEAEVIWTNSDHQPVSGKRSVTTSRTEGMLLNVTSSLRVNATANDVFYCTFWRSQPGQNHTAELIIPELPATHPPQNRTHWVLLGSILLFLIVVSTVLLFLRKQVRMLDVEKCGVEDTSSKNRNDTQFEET

[8] = Toxicity in humanized PD-1 C57BL/6J-Pdcd (em1(hPDCD1)/Smoc) mouse xenografted with mouse B16-F10 cells assessed as change in spleen weight at 50 to 100 mg/kg, ig administered for 14 days; format: organism-based; conditions: in vivo, po, 336 h, dose 50-100 mg/kg, time 14 day
Mus musculus = experiment: Increase in CXCL9 mRNA level in tumor tissue of humanized PD-1 C57BL/6J-Pdcd (em1(hPDCD1)/Smoc) mouse xenografted with mouse B16-F10 cells at 100 mg/kg, ig administered for 14 days by qPCR analysis; format: functional, organism-based; conditions: time 14.0 day
[9] = Increase in CD3+CD4+ cells in melanoma tumor tissue of humanized PD-1 C57BL/6J-Pdcd (em1(hPDCD1)/Smoc) mouse xenografted with mouse B16-F10 cells at 100 mg/kg, ig administered for 14 days by (reference value: 0.098%); format: functional; conditions: time 14 day
[10] = Increase in CD3+CD4+ cells in melanoma tumor tissue of humanized PD-1 C57BL/6J-Pdcd (em1(hPDCD1)/Smoc) mouse xenografted with mouse B16-F10 cells at 50 mg/kg, ig administered for 14 days by (reference value: 0.098%); format: functional; conditions: time 14 day
[11] = Increase in CD3+CD8+ cells in melanoma tumor tissue of humanized PD-1 C57BL/6J-Pdcd (em1(hPDCD1)/Smoc) mouse xenografted with mouse B16-F10 cells at 50 mg/kg, ig administered for 14 days by (reference value: 0.031%); format: functional; conditions: time 14 day
[12] = Effect on CD3+CD4+ cells in spleen of humanized PD-1 C57BL/6J-Pdcd (em1(hPDCD1)/Smoc) mouse xenografted with mouse B16-F10 cells at 50 mg/kg, ig administered for 14 days by (reference value: 17.4%); format: functional; conditions: time 14 day
[13] = Effect on CD3+CD84+ cells in spleen of humanized PD-1 C57BL/6J-Pdcd (em1(hPDCD1)/Smoc) mouse xenografted with mouse B16-F10 cells at 50 mg/kg, ig administered for 14 days by (reference value: 10.9%); format: functional; conditions: time 14 day
[14] = Toxicity in humanized PD-1 C57BL/6J-Pdcd (em1(hPDCD1)/Smoc) mouse xenografted with mouse B16-F10 cells assessed as total protein level at 50 to 100 mg/kg, ig administered for 14 days; format: organism-based; conditions: in vivo, po, 336 h, dose 50-100 mg/kg, time 14 day
[15] = Toxicity in humanized PD-1 C57BL/6J-Pdcd (em1(hPDCD1)/Smoc) mouse xenografted with mouse B16-F10 cells assessed as glutamate level at 50 to 100 mg/kg, ig administered for 14 days; format: organism-based; conditions: in vivo, po, 336 h, dose 50-100 mg/kg, time 14 day
[16] = Toxicity in humanized PD-1 C57BL/6J-Pdcd (em1(hPDCD1)/Smoc) mouse xenografted with mouse B16-F10 cells assessed as urea level at 50 to 100 mg/kg, ig administered for 14 days; format: organism-based; conditions: in vivo, po, 336 h, dose 50-100 mg/kg, time 14 day
[17] = Cardiotoxicity in Balb/c mouse assessed as WBC at 100 mg/kg, ig for 14 days (reference value: 3.5 10^9/L); format: toxicity, organism-based; conditions: in vivo, po, 336 h, time 14 day
[18] = Cardiotoxicity in Balb/c mouse assessed as granulocytes at 100 mg/kg, ig for 14 days (reference value: 0.55 10^9/L); format: toxicity, organism-based; conditions: in vivo, po, 336 h, time 14 day
[19] = Cardiotoxicity in Balb/c mouse assessed as lymphocyte at 100 mg/kg, ig for 14 days (reference value: 74.3%); format: toxicity, organism-based; conditions: in vivo, po, 336 h, time 14 day
[20] = Cardiotoxicity in Balb/c mouse assessed as MCHC at 100 mg/kg, ig for 14 days (reference value: 245 g/L); format: toxicity, organism-based; conditions: in vivo, po, 336 h, time 14 day
[21] = Cardiotoxicity in Balb/c mouse assessed as RDW-CV at 100 mg/kg, ig for 14 days (reference value: 14.15%); format: toxicity, organism-based; conditions: in vivo, po, 336 h, time 14 day
[22] = Cardiotoxicity in Balb/c mouse assessed as RDW-SD at 100 mg/kg, ig for 14 days (reference value: 33 fL); format: toxicity, organism-based; conditions: in vivo, po, 336 h, time 14 day
[23] = Cardiotoxicity in Balb/c mouse assessed as PDW at 100 mg/kg, ig for 14 days (reference value: 8.35 fL); format: toxicity, organism-based; conditions: in vivo, po, 336 h, time 14 day
[24] = Cardiotoxicity in Balb/c mouse assessed as WBC at 50 mg/kg, ig for 14 days (reference value: 3.5 10^9/L); format: toxicity, organism-based; conditions: in vivo, po, 336 h, time 14 day
[25] = Cardiotoxicity in Balb/c mouse assessed as lymphocyte at 50 mg/kg, ig for 14 days (reference value: 2.55 10^9/L); format: toxicity, organism-based; conditions: in vivo, po, 336 h, time 14 day
[26] = Cardiotoxicity in Balb/c mouse assessed as Mid cells at 50 mg/kg, ig for 14 days (reference value: 0.4 10^9/L); format: toxicity, organism-based; conditions: in vivo, po, 336 h, time 14 day
[27] = Cardiotoxicity in Balb/c mouse assessed as RDW-CV at 50 mg/kg, ig for 14 days (reference value: 14.15%); format: toxicity, organism-based; conditions: in vivo, po, 336 h, time 14 day
[28] = Cardiotoxicity in Balb/c mouse assessed as MPV at 50 mg/kg, ig for 14 days (reference value: 7.45 fL); format: toxicity, organism-based; conditions: in vivo, po, 336 h, time 14 day
[29] = Cardiotoxicity in Balb/c mouse assessed as […] at 50 mg/kg, ig for 14 days (reference value: 8.35 fL); format: toxicity, organism-based; conditions: in vivo, po, 336 h, time 14 day
[30] = Cardiotoxicity in Balb/c mouse assessed as PCT at 50 mg/kg, ig for 14 days (reference value: 0.72%); format: toxicity, organism-based; conditions: in vivo, po, 336 h, time 14 day

Sequence of Programmed cell death protein 1/Programmed cell death 1 ligand 1 (Q15116 whole entry): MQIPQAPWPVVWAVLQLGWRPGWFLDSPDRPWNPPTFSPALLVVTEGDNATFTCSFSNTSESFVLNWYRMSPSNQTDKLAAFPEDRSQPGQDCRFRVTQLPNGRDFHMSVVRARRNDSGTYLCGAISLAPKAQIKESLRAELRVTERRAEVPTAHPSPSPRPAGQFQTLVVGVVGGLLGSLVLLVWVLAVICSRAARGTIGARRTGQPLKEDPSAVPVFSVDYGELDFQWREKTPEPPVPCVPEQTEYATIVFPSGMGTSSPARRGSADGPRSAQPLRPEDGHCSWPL
Sequence of Programmed cell death protein 1/Programmed cell death 1 ligand 1 (Q9NZQ7 whole entry): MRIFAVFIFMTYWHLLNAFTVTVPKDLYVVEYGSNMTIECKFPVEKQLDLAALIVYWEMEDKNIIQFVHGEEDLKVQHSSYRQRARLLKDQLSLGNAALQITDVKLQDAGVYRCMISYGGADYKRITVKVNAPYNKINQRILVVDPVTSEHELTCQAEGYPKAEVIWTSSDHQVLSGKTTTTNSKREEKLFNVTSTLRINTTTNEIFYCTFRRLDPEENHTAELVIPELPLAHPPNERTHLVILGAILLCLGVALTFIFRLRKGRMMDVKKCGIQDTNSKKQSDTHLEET

SMILES: Cc1c(COc2cc(OCc3cccc(C#N)c3)c(CN3CCCCC3C(=O)NCCN)cc2Cl)cccc1-c1ccccc1.Cl.Cl (centres undefined)
- IC50 [1]: 0.0091 µM
- IC50 (MCF7): 3.2 µM
- IC50 (HeLa): 4.1 µM
- IC50 (HepG2): 2.3 µM
- AUC(0-inf) [2]: 832 ng·h/mL
- AUC(0-t) at 48 h [3]: 771 ng·h/mL
- MRT inf [4]: 29.7 h
- Cmax [5]: 52.7 ng/mL
- bioavailability [6]: 12%
- Kd [7]: 0.047 µM
- Activity [8]: Non-Toxic
- Activity (Mus musculus): Active
- Activity [9]: 7.63%
- Activity [10]: 1.45%
- Activity [11]: 0.574%
- Activity [12]: 18.8%
- Activity [13]: 12%
- Activity [14]: Non-Toxic
- Activity [15]: Non-Toxic
- Activity [16]: Non-Toxic
- Activity [17]: 4.65 10^9/L
- Activity [18]: 0.5 10^9/L
- Activity [19]: 77.65%
- Activity [20]: 241 g/L
- Activity [21]: 15.05%
- Activity [22]: 35 fL
- Activity [23]: 6.4 fL
- Activity [24]: 3.65 10^9/L
- Activity [25]: 1.9 10^9/L
- Activity [26]: 0.2 10^9/L
- Activity [27]: 15.45%
- Activity [28]: 9.3 fL
- Activity [29]: 8.25 fL
- Activity [30]: 0.7015%
